# “Also recorded” adds a separate entry of the source.
# What was measured:
# [1] = tested on: chick embryo vitelline capillaries; test: Chick embryo vitelline capillary regression assay; assay type: in vivo; design: key to Vitelline capillary regression: +: Vascular reactivity; 0: No vascular reactivity; +/-: Equivocal reactivity
# Experimental: Using the chick embryo vitelline capillaries assay, compounds were tested for their ability to induce capillary regression. Each compound was applied in 0.1 ml of 15% Ficol 400 and PBS onto the embryo, and vascular regression was assessed after 60 minutes.
# The 3-day chick embryo consists of an embryonic disc from which numerous vessels emerge and return, forming a "FIG. 8"-shaped structure--the embryo in the center with vascular loops extending outward over both poles. […] Following a lag period of around 15 minutes, the constriction of continuity between capillary and secondary vessels, generally on the "venous" side, was observed. Continued pulsatile blood flow progressed, resulting in a "swelling" of the blind tube, followed by a pinching off of the remaining connection and formation of an enclosed vascular sac resembling a "blood island." This process progressed until only the largest vessels remained intact.
# [2] = tested on: Xenopus tadpoles, stage 59-60; test: Xenopus tadpole assay; conditions: for Tadpole assay, observed effects: 10 μg/ml; for Pharmacologic similarity in tadpole assay: in vivo
# [3] = Fasting blood glucose in mice; assay type: in vivo, male CD-1 mice
# Experimental: To study the effect of steroid administrator or the NHE responsible for secretion of insulin, several of the aminosterols from shark liver were administered to fasting mice. Male CD-1 mice were assigned to one of four treatment groups. Whole blood glucose was tested using glucometer (Lifescan Glucometer II and One Touch test strips). Statistical analysis was via one-way analysis of variance (ANOVA) followed by subsequent Bonferonni's t-test.
# NHE3 = conditions: cited from earlier work
# [4] = tested on: L1210 lymphoblastic leukemia; test: Mouse model of L1210 leukemia; conditions: mouse, in vivo
# Text: C57B mice were inoculated with L1210 lymphoblastic leukemia cells at an inoculum that causes leukemia in 100% of animals.
# HM = HM MTT assay; assay type: cell-based; conditions: Table II; read-out: HM MTT assay, Minimum Effective Concentration
# NHE1 = conditions: cited from earlier work
# NHE2 = conditions: cited from earlier work
structure (smiles),measurement,setting,value
"CC(COS(=O)(=O)O)C(=O)CC[C@@H](C)[C@H]1CC[C@H]2[C@@H]3[C@H](O)C[C@H]4C[C@@H](NCCCNCCCCN)CC[C@]4(C)[C@H]3CC[C@]12C (single isomer, unassigned) [Compound 1360]",Vitelline capillary regression,[1]; 1 μg applied,0
same,Effect on chick embryo vessels,[1]; 3- to 5-day chick embryo,"the blood circulating through the embryonic vessels exhibited a brighter red color, reflecting a higher degree of oxygenation"
same,"Tadpole assay, observed effects",[2],Swelling and lysis of certain erythrocytes occurred; also recorded: extensive vasocclusion occurred within 60 minutes throughout the tail
"CC(C)C(CO)(CC[C@@H](C)[C@H]1CC[C@H]2[C@@H]3[C@H](O)C[C@H]4C[C@@H](NCCCNCCCCN)CC[C@]4(C)[C@H]3CC[C@]12C)OS(=O)(=O)O (single isomer, unassigned) [Compound 1437]","Tadpole assay, observed effects",[2],"Epithelium covering the embryonic portions of the animal, such as the tail and antennae, began to slough off in sheets; also recorded: the larval skin was observed to shed off in a sheet"
same,Hyperglycemia,"[3]; i.v., 1436 in D5W, 1437 in water",caused hyperglycemia in mice
same,Fasting Blood Glucose Mean ± SEM,"[3]; total dose 20 mg/kg i.v. (2 × 10 mg/kg), 30 min. after 2d dose",82 ± 15.3 mg/dL
N=C(N)NC(=O)c1nc(Cl)c(N)nc1N [Amiloride],Ki,NHE3,100 µM
"N.N.[Cl][Pt][Cl] [Cisplatin, reference compound]",Hematological profile,[4],profound anemia by day 28
CC(C)CCC[C@@H](C)[C@H]1CC[C@H]2[C@@H]3CC[C@H]4C[C@@H](NCCCNCCCCN)CC[C@]4(C)[C@H]3CC[C@]12C [Compound 303],Vitelline capillary regression,[1]; 1 μg applied,0
C[C@H](CCC(=O)O)[C@H]1CC[C@H]2[C@@H]3CC[C@H]4C[C@H](NCCCNCCCCN)CC[C@]4(C)[C@H]3CC[C@]12C [Compound 318],Vitelline capillary regression,[1]; 1 μg applied,0
CC(C)CCC[C@@H](C)[C@H]1CC[C@H]2[C@@H]3[C@H](O)C[C@H]4C[C@@H](N)CC[C@]4(C)[C@H]3CC[C@]12C [Compound 364],Vitelline capillary regression,[1]; 0.001 μg applied,0
same,Vitelline capillary regression,[1]; 0.01 μg applied,0
same,Vitelline capillary regression,[1]; 0.1 μg applied,0
same,Vitelline capillary regression,[1]; 1 μg applied,+
same,Vitelline capillary regression,[1]; 10 μg applied,+
same,"Chick embryo diss. assay, Minimum Effective Concentration",[1]; Table II,1 µg
CC(C)CCC[C@@H](C)[C@H]1CC[C@H]2[C@@H]3[C@H](O)C[C@H]4C[C@H](NCCCNCCCCN)CC[C@]4(C)[C@H]3CC[C@]12C [Compound 370],Pharmacologic similarity in tadpole assay,[2],pharmacologic activity similar to that seen for FX 3
CC(C)CCC[C@@H](C)[C@H]1CC[C@H]2[C@@H]3[C@H](O)C[C@H]4C[C@@H](NCCCNCCCCN)CC[C@]4(C)[C@H]3CC[C@]12C [Compound 371],Vitelline capillary regression,[1]; 0.001 μg applied,0
same,Vitelline capillary regression,[1]; 0.01 μg applied,0
same,Vitelline capillary regression,[1]; 0.1 μg applied,0
same,Vitelline capillary regression,[1]; 1 μg applied,+/-
same,Vitelline capillary regression,[1]; 10 μg applied,+
same,Pharmacologic similarity in tadpole assay,[2],effects like those produced by compound 1436
C[C@H](CCC(=O)O)[C@H]1CC[C@H]2[C@@H]3[C@H](O)C[C@H]4C[C@@H](NCCCNCCCCN)CC[C@]4(C)[C@H]3CC[C@]12C [Compound 381],Vitelline capillary regression,[1]; 1 μg applied,0
C[C@H](CCC(=O)O)[C@H]1CC[C@H]2[C@@H]3[C@H](O)C[C@H]4C[C@H](NCCCNCCCCN)CC[C@]4(C)[C@H]3CC[C@]12C [Compound 382],Vitelline capillary regression,[1]; 0.001 μg applied,0
same,Vitelline capillary regression,[1]; 0.01 μg applied,0
same,Vitelline capillary regression,[1]; 0.1 μg applied,0
same,Vitelline capillary regression,[1]; 1 μg applied,+
same,Vitelline capillary regression,[1]; 10 μg applied,+
COC(=O)CC[C@@H](C)[C@H]1CC[C@H]2[C@@H]3[C@H](O)C[C@H]4C[C@@H](NCCCNCCCCNCCCN)CC[C@]4(C)[C@H]3CC[C@]12C [Compound 396],Vitelline capillary regression,[1]; 0.001 μg applied,0
same,Vitelline capillary regression,[1]; 0.01 μg applied,0
same,Vitelline capillary regression,[1]; 0.1 μg applied,0
same,Vitelline capillary regression,[1]; 1 μg applied,+
COC(=O)CC[C@@H](C)[C@H]1CC[C@H]2[C@@H]3[C@H](O)C[C@@H]4C[C@@H](NCCN)CC[C@]4(C)[C@H]3CC[C@]12C [Compound 409],Vitelline capillary regression,[1]; 1 μg applied,0
same,Pharmacologic similarity in tadpole assay,[2],functionally similar to compound 1437
COC(=O)CC[C@@H](C)[C@H]1CC[C@H]2[C@@H]3[C@H](O)C[C@@H]4C[C@H](NCCN)CC[C@]4(C)[C@H]3CC[C@]12C [Compound 410],Vitelline capillary regression,[1]; 0.001 μg applied,0
same,Vitelline capillary regression,[1]; 0.01 μg applied,+/-
same,Vitelline capillary regression,[1]; 0.1 μg applied,+/-
same,Vitelline capillary regression,[1]; 1 μg applied,+
same,Pharmacologic similarity in tadpole assay,[2],functionally similar to compound 1437
same,minimal effective concentration,HM,2.6 µg/mL
COC(=O)CC[C@@H](C)[C@H]1CC[C@H]2[C@@H]3[C@H](O)C[C@@H]4C[C@@H](NCCCNCCCCNCCCN)CC[C@]4(C)[C@H]3CC[C@]12C [Compound 411],Vitelline capillary regression,[1]; 0.001 μg applied,0
same,Vitelline capillary regression,[1]; 0.01 μg applied,0
same,Vitelline capillary regression,[1]; 0.1 μg applied,0
same,Vitelline capillary regression,[1]; 1 μg applied,+/-
C[C@H](CCC(=O)O)[C@H]1CC[C@H]2[C@@H]3[C@H](O)C[C@@H]4C[C@H](NCCCNCCCCNCCCN)CC[C@]4(C)[C@H]3CC[C@]12C [Compound 412],Vitelline capillary regression,[1]; 0.001 μg applied,0
same,Vitelline capillary regression,[1]; 0.01 μg applied,0
same,Vitelline capillary regression,[1]; 0.1 μg applied,0
same,Vitelline capillary regression,[1]; 1 μg applied,+
same,Pharmacologic similarity in tadpole assay,[2],pharmacologic activity similar to that seen for FX 3
same,minimal effective concentration,HM,18.1 µg/mL
C[C@H](CCC(=O)O)[C@H]1CC[C@H]2[C@@H]3[C@H](O)C[C@@H]4C[C@@H](NCCCNCCCCNCCCN)CC[C@]4(C)[C@H]3CC[C@]12C [Compound 413],Vitelline capillary regression,[1]; 1 μg applied,0
same,Pharmacologic similarity in tadpole assay,[2],effects like those produced by compound 1436
C[C@H](CCC(=O)O)[C@H]1CC[C@H]2[C@@H]3[C@H](O)C[C@@H]4C[C@H](NCCN)CC[C@]4(C)[C@H]3CC[C@]12C [Compound 414],Vitelline capillary regression,[1]; 1 μg applied,0
same,Pharmacologic similarity in tadpole assay,[2],potencies comparable to that of Fraction 1
C[C@H](CCC(=O)O)[C@H]1CC[C@H]2[C@@H]3[C@H](O)C[C@@H]4C[C@@H](NCCN)CC[C@]4(C)[C@H]3CC[C@]12C [Compound 415],Vitelline capillary regression,[1]; 0.001 μg applied,0
same,Vitelline capillary regression,[1]; 0.01 μg applied,+
same,Vitelline capillary regression,[1]; 0.1 μg applied,+
same,Vitelline capillary regression,[1]; 1 μg applied,+
COC(=O)CC[C@@H](C)[C@H]1CC[C@H]2[C@@H]3CC[C@@H]4C[C@H](NCCN)CC[C@]4(C)[C@H]3C[C@H](O)[C@]12C [Compound 416],Pharmacologic similarity in tadpole assay,[2],functionally similar to compound 1437
same,minimal effective concentration,HM,2.4 µg/mL
COC(=O)CC[C@@H](C)[C@H]1CC[C@H]2[C@@H]3C[C@@H](O)[C@H]4C[C@H](NCCN)CC[C@]4(C)[C@H]3CC[C@]12C [Compound 431],Pharmacologic similarity in tadpole assay,[2],functionally similar to compound 1437
COC(=O)CC[C@@H](C)[C@H]1CC[C@H]2[C@@H]3C[C@@H](O)[C@H]4C[C@@H](NCCN)CC[C@]4(C)[C@H]3CC[C@]12C [Compound 432],Pharmacologic similarity in tadpole assay,[2],functionally similar to compound 1437
C[C@H](CCC(=O)O)[C@H]1CC[C@H]2[C@@H]3C[C@@H](O)[C@H]4C[C@@H](NCCN)CC[C@]4(C)[C@H]3CC[C@]12C [Compound 433],Pharmacologic similarity in tadpole assay,[2],functionally similar to compound 1437
COC(=O)CC[C@@H](C)[C@H]1CC[C@H]2[C@@H]3CC[C@H]4C[C@H](NCCCNCCCCNCCCN)CC[C@]4(C)[C@H]3CC[C@]12C [Compound 458],Pharmacologic similarity in tadpole assay,[2],pharmacologic activity similar to that seen for FX 3
same,minimal effective concentration,HM,6.8 µg/mL
COC(=O)CC[C@@H](C)[C@H]1CC[C@H]2[C@@H]3CC[C@H]4C[C@@H](NCCCNCCCCNCCCN)CC[C@]4(C)[C@H]3CC[C@]12C [Compound 459],Pharmacologic similarity in tadpole assay,[2],pharmacologic activity similar to that seen for FX 3
same,minimal effective concentration,HM,5 µg/mL
COC(=O)CC[C@@H](C)[C@H]1CC[C@H]2[C@@H]3C[C@@H](O)[C@H]4C[C@H](NCCCNCCCCNCCCN)CC[C@]4(C)[C@H]3CC[C@]12C [Compound 465],Pharmacologic similarity in tadpole assay,[2],pharmacologic activity similar to that seen for FX 3
COC(=O)CC[C@@H](C)[C@H]1CC[C@H]2[C@@H]3C[C@@H](O)[C@H]4C[C@@H](NCCCNCCCCNCCCN)CC[C@]4(C)[C@H]3CC[C@]12C [Compound 466],Pharmacologic similarity in tadpole assay,[2],pharmacologic activity similar to that seen for FX 3
CC(C)CCC[C@@H](C)[C@H]1CC[C@H]2[C@@H]3[C@H](O)C[C@H]4C[C@H](N)CC[C@]4(C)[C@H]3CC[C@]12C [Compound 1363],Pharmacologic similarity in tadpole assay,[2],potencies comparable to that of Fraction 1
"CN(C)c1nc(N)c(C(=O)N=C(N)N)nc1Cl [DMA, dimethylamiloride]",Ki,NHE1,0.1 µM
same,Ki,NHE3,11 µM
same,Ki,NHE2,0.7 µM
"CCCN(C)c1nc(N)c(C(=O)N=C(N)N)nc1Cl [MPA, methylpropylamiloride]",Ki,NHE1,0.08 µM
same,Ki,NHE3,10 µM
same,Ki,NHE2,5 µM
